Usually Kd stands for the equilibrium constant for the complex coming apart.

The source of these data is publication PMC9036094, “Antigen-derived peptides engage the ER stress sensor IRE1α to curb dendritic cell cross-presentation” (The Journal of Cell Biology, 2022).

Peptide text beside a SMILES is read from it. * marks the point of attachment. Cbz = O=C(OCc1ccccc1)*

The subject of assay [1] is IRE1α in MyD88 KO Flt3L-derived BMDCs. The experiment in a line: IRE1α activation in MyD88 KO Flt3L-derived BMDCs (immunoblot). Type of assay: cell-based, mouse. Conditions: ovalbumin 500 μg/ml or LPS 10 μg/ml, 4 h. On the procedure:
(§1) Figure S1. Antigen pulsing of BMDCs activates IRE1α. (A) BMDCs were treated with MG132 (5 μM) or ovalbumin (500 μg/ml) for indicated time points and analyzed by IB. (B) BMDCs were pulsed with ovalbumin (500 μg/ml) and G9668 (3 μM) for indicated time periods and analyzed by IB. (C) Molecular structure, potency, and kinase selectivity of G9668. (D) Schematic representation of G9668 interaction with 220 kinases at 1 μM. Size and color of circles represent interaction strength. Analysis was conducted by KinomeScan. (E) BMDCs were pulsed for 4 h with APC-tagged ovalbumin or soluble CD4-Fc protein (500 μg/ml) with amiloride (10 μM); uptake of protein was assayed by flow cytometry (n = 3). (F) WT or MyD88 KO Flt3L-derived BMDCs were pulsed with ovalbumin (500 μg/ml) or soluble CD4-Fc protein (500 μg/ml), or treated with LPS (10 μg/ml) for 4 h and analyzed by IB. (G) MEFs and BMDCs were pulsed with ovalbumin or treated with Tg (100 nM) for 4 h and analyzed by IB. Images in A, B, F, and G represent at least two similar experiments, and molecular weights represent kD; E bar graphs represent mean ± SD from three independent biological repeats. Analysis for E was performed using unpaired, two-tailed t test; *, P ≤ 0.05; **, P ≤ 0.01. Source data are available for this figure: SourceData FS1. […]
(In general: A western blot detects proteins with antibodies after separation by electrophoresis.)

Assay [2] deals with IRE1α (XBP1s, pIRE1α) in BMDCs. Nature of the assay: IRE1α activation in BMDCs (immunoblot). Type of assay: cell-based, mouse. Conditions: in words; for IRE1α activation: GM-CSF + IL-4 BMDCs, immunoblot for XBP1s/pIRE1α. Here is the method: Figure 1. Antigen pulsing of BMDCs activates IRE1α. (A) BMDCs were pulsed with ovalbumin (starting at 62.5 μg/ml and sequentially doubled) and analyzed by immunoblot (IB) for the indicated markers. (B) BMDCs were pulsed with ovalbumin (starting at 500 μg/ml and sequentially halved) or […] (1 μM), or stimulated with tunicamycin (1 μg/ml) or poly-I:C (25 μg/ml) for 4 h, and analyzed by IB. (C) BMDCs were pulsed with ovalbumin (500 μg/ml) for indicated time points and analyzed by IB. (D) BMDCs were pulsed for 4 h with ovalbumin or lysates derived from the indicated cell lines (500 μg/ml protein) and analyzed by IB. […] (F) Upon removal from bone marrow, total bone marrow cells were transfected with non-targeting control (NTC) or TAP1-targeting gRNAs, along with CRISPR/Cas9 delivery constructs. Cells were then subjected to standard BMDC-differentiation protocol, pulsed with ovalbumin (500 μg/ml) for 4 h, and analyzed by IB. All IB images are representative of at least two similar experiments, and molecular weights represent kD. Source data are available for this figure: SourceData F1.
For purification and differentiation of BMDCs, the femur and tibia bones of C57BL/6 mice were flushed with sterile PBS, and bone marrow cells were then cultured in RPMI1640 media as described above and further supplemented with […] β2-mercaptoethanol (Sigma-Aldrich), 20 ng/ml GM-CSF (BioLegend), and 10 ng/ml IL-4 (BioLegend) for 9 d, with media being replenished every 3 d. Where indicated, Flt3L-BMDCs were similarly generated using media supplemented with 200 ng/ml recombinant mouse Flt3L (PeproTech; [Brasel et al., 2000]). After 9 d of culture, BMDCs were routinely verified to be >90% CD11c^+ MHC-II^high by flow cytometry analysis.
Thapsigargin (Sigma-Aldrich) was used at 100 nM, tunicamycin (Sigma-Aldrich) was used at 5 μg/ml, MG132 (Sigma-Aldrich) was used at 5 μM, Amiloride (Sigma-Aldrich) was used at 10 μM, actinomycin D (Sigma-Aldrich) was used at 4 μg/ml, LPS (Sigma-Aldrich) was used at 10 μg/ml, and poly-I:C (Sigma-Aldrich) was used at 25 μg/ml. Ovalbumin (Sigma-Aldrich), EF-OVA (EndoFit; InvivoGen), […] peptide (Sigma-Aldrich), and human CD4-Fc fusion protein (generated in-house at Genentech) were dissolved in PBS prior to pulsing and used at indicated concentrations.
Cells were lysed in PBS solution supplemented with 1X radioimmunoprecipitation assay buffer (Millipore) and 2X Halt protease-phosphatase inhibitor cocktail (Thermo Fisher Scientific). Upon clearance, samples were analyzed by SDS-PAGE, electrotransferred to nitrocellulose membranes (Invitrogen), and blocked by 5% powdered milk in PBSt (PBS supplemented with 0.1% tween) solution. Development was conducted with ECL reagent (Thermo Fisher Scientific) and imaging was performed with the ChemiDoc ZRS+ imager (Bio-Rad). Antibodies used for Western blot analysis include IRE1α (3294, rabbit; Cell Signaling Technology), β-actin (5125, rabbit; Cell Signaling), GAPDH (97166, mouse; Cell Signaling), ATF6 (66563-1-Ig, mouse; ProteinTech), TAP1 (12341, rabbit; Cell Signaling), CHOP (2895, mouse; Cell Signaling), ATF4 (11815, rabbit; Cell Signaling), ovalbumin (P1-196, rabbit; Thermo Fisher Scientific), human Fc (ab977225, rabbit; Abcam), Myc tag (2272, rabbit; Cell Signaling), and biotin (5597, rabbit; Cell Signaling). IRE1α lumenal domain (mouse), XBP1s (rabbit), and pIRE1α (rabbit) antibodies were generated at Genentech. Secondary antibodies used were for mouse (715-035-150; The Jackson Laboratory) and rabbit (711-035-152; The Jackson Laboratory).

For assay [3], the system named is PERK (ATF4, CHOP) in BMDCs. The experiment in a line: PERK activation in BMDCs (immunoblot of ATF4 and CHOP). It counts as cell-based, mouse. The note with it: MG132 5 μM or ovalbumin 500 μg/ml, in words. On the procedure:
as §1

For another assay, the system named is ATF6 in BMDCs. The experiment in a line: ATF6 activation in BMDCs (immunoblot, proteolytic processing). It counts as cell-based, mouse. The note with it: MG132 5 μM or ovalbumin 500 μg/ml, in words. On the procedure: as §1
Another assay deals with heat-denatured ovalbumin (UniProt P01012). Nature of the assay: ELISA; native or heat-denatured ovalbumin coated on a 96-well plate, blocked with 1% BSA; IRE1α LD-Fc (10 μg/ml) in PBS with 20 mM Hepes, 100 mM KOAc, 0.2% tween-20, 2 h, room temperature; detection with HRP-conjugated anti-human Fc antibody. For orientation: In an ELISA, binding on a coated surface is turned into a signal by an enzyme label.

In assay [4] the test system is IRE1α LD-Fc. Nature of the assay: Co-immunoprecipitation of ovalbumin with IRE1α LD-Fc. Type of assay: binding, human. The note with it: LD-Fc 10 μg/ml, 2 h; ovalbumin 1-300 μg/ml; in words. On the procedure:
(§2) For experiments testing ovalbumin binding, a human LD-Fc was used at indicated concentrations. LD-Fc is comprised of amino acids M1-D443 of IRE1α fused C-terminally to a linker ([…]) followed by the human IgG1 hinge and Fc portion. Ovalbumin (Sigma-Aldrich) was dissolved in sterile PBS and used in native state or denatured as indicated by incubation at 95°C buffer for 10 min.
For co-immunoprecipitation experiments, IRE1α LD-Fc (10 μg/ml) and ovalbumin (indicated concentrations) were co-incubated in binding buffer (as described above) for 2 h and then immunoprecipitated with anti-IRE1α LD antibody (made in-house at Genentech), conjugated to sepharose beads, overnight at 4°C. Beads were subsequently washed four times with lysis buffer and boiled in SDS sample buffer for 10 min. Samples were then analyzed by SDS-PAGE followed by immunoblot.

In assay [5] the test system is IRE1α LD-Fc. Nature of the assay: Plate-based ovalbumin binding to IRE1α LD-Fc. On the set-up: species or system human. The note with it: 2 h, room temperature. On the procedure: as §2
For plate-based binding experiments, native or heat-denatured ovalbumin at indicated concentrations was bound to a flat-bottom 96-well plate (Corning Inc.) with coating buffer (BioLegend), washed with PBSt, blocked with 1% BSA in PBS, and subsequently incubated with IRE1α LD-Fc (10 μg/ml) in binding buffer composed of PBS with 20 mM Hepes, 100 mM KOAc, and 0.2% tween-20 for 2 h at room temperature. Plates were washed again with PBSt and incubated with an anti-human Fc HRP-conjugated antibody (ab977225; Abcam). Development was performed with 3,3′,5,5′-Tetramethylbenzidine solution and terminated with Stop solution (BioLegend). Readings were taken with a SpectraMax M2 spectrometer (Molecular Devices).

For the molecule “lipopolysaccharide [LPS, reference compound]”, in assay [1], the “IRE1α activation, MyD88 KO BMDCs” value is listed as “failed to activate IRE1α”.

Consider `N=C(N)NC(=O)c1nc(Cl)c(N)nc1N` [amiloride, reference compound], for which the “block of antigen-induced IRE1α activation” value in assay [2] (BMDCs pulsed with antigen 500 μg/ml, G9668 3 μM or amiloride 10 μM) is listed as “blocked antigen-induced IRE1α stimulation in BMDCs”. On to `CC(C)C[C@@H](C=O)NC(=O)[C@H](CC(C)C)NC(=O)[C@H](CC(C)C)NC(=O)OCc1ccccc1` [MG132, reference compound] (Cbz-Leu-Leu-Leu-aldehyde), for which the IRE1α activation entry in assay [2] is on record as “robust activation”. In assay [3], the PERK activation entry is given as “robust activation”. Further, the ATF6 activation entry with ATF6 in BMDCs is “robust activation”. In the case of “polyinosinic:polycytidylic acid [poly-I:C, reference compound]”, in assay [2], the IRE1α activation entry is listed as “much weaker IRE1α activation than did the potent pharmacological ER-stressor tunicamycin”. With tunicamycin [reference compound], in assay [2], the IRE1α activation result is reported as “potent pharmacological ER-stressor”.

For the molecule “SIINFEKL [ovalbumin-derived octapeptide, reference compound]”, the IRE1α activation result in assay [2] is recorded as “little effect on IRE1α activity”.

Regarding “IRE1α lumenal domain fused to an Fc tag (IRE1α LD-Fc) (from UniProt O75460 19-443) (Fc fusion)”, the Kd with heat-denatured ovalbumin is 300 µM.

B1: heat-denatured ovalbumin: ovalbumin denatured by incubation at 95°C for 10 min (protein)
chain: MGSIGAASMEFCFDVFKELKVHHANENIFYCPIAIMSALAMVYLGAKDSTRTQINKVVRFDKLPGFGDSIEAQCGTSVNVHSSLRDILNQITKPNDVYSFSLASRLYAEERYPILPEYLQCVKELYRGGLEPINFQTAADQARELINSWVESQTNGIIRNVLQPSSVDSQTAMVLVNAIVFKGLWEKAFKDEDTQAMPFRVTEQESKPVQMMYQIGLFRVASMASEKMKILELPFASGTMSMLVLLPDEVSGLEQLESIINFEKLTEWTSSNVMEERKIKVYLPRMKMEEKYNLTSVLMAMGITDVFSSSANLSGISSAESLKISQAVHAAHAEINEAGREVVGSAEAGVDAASVSEEFRADHPFLFCIKHIATNAVLFFGRCVSP
With B1, in the assay on IRE1α LD-Fc [4], the “co-immunoprecipitation with IRE1α LD-Fc” value is recorded as “concentration-dependent association”. In the assay on IRE1α LD-Fc [5] (LD-Fc 10 μg/ml, in words), the “binding to immobilized IRE1α LD-Fc” value is “specific and saturable binding”. Moreover, the Kd at IRE1α LD-Fc [5] (plate-based, IRE1α LD-Fc 10 μg/ml, estimated, read-out: equilibrium dissociation constant (Kd)) was around 300 µM.
